According to patent US20140294991A1, “MEDICAMENT FOR TREATING ANTERIOR EYE DISEASE COMPRISING REBAMIPIDE AND A TEAR-RETAINING AGENT” (OTSUKA PHARMACEUTICAL CO., LTD., priority 2011, published 2014):

Tested on: tear deficient rat model
Assay: Tear volume by Schirmer's test in capsaicin-induced tear deficient rat model
Assay type: in vivo, Wister/ST rat
Details: Pharmacological Experiment 3; repeated administration test; compared with non-treated group (FIG. 5)
Experimental: To evaluate the utility of a combination of rebamipide and a tear-retaining agent or an artificial tear, rebamipide and sodium hyaluronate were administrated in combination to a tear deficient rat model, and the tear volume was measured and the corneal epithelial damage was evaluated. The tests were carried out in single administration and repeated administration.
Capsaicin (50 mg/kg) was administered to a 4-day-old Wister/ST rat, and 4 weeks later the rat was used as a tear deficient rat model.
For the single administration test, 5 μl of each drug solution for one eye was topically administrated to the rats of the “2% rebamipide-treated” group, “0.1% sodium hyaluronate-treated” group, and “2% rebamipide+0.1% sodium hyaluronate-treated” group. For the combination administration, 0.1% sodium hyaluronate was administrated 5 minutes after the administration of 2% rebamipide.
For the repeated administration test, 5 μl of each drug solution for one eye was topically administrated to the rats of the “2% rebamipide-treated” group (4 times/day), “0.1% sodium hyaluronate-treated” group (6 times/day), and “2% rebamipide (4 times/day)+0.1% sodium hyaluronate (6 times/day)-treated” group. […]
The tear volumes were measured as an index of a tear-retention capacity by Schirmer's test.

O=C(NC(Cc1cc(=O)[nH]c2ccccc12)C(=O)O)c1ccc(Cl)cc1 (stereo not shown) [rebamipide, 2-(4-chlorobenzoylamino)-3-[2(1H)-quinolin-4-yl]propionic acid]
tear volume (tear-retention capacity): significantly higher
